According to US20200197354A1, “METHODS, COMPOSITIONS AND CONTAINERS FOR REDUCING SOLID FORM QUERCETIN DEGRADATION AND 2,4,6-TRIHYDROXYBENZOIC ACID TOXIC BYPRODUCT THEREOF” (PUBLIC JOINT STOCK COMPANY "SCIENTIFICINDUSTRIALCENTRE …, priority 2018, published 2020):
Converted amounts (≈) assume the structure as drawn.

Assays:
[1] = test system: Pseudokirchneriella subcapitata; details: 48 h
Description: Toxicity is determined using green algae Pseudokirchneriella subcapitata growth rate assay as described (Lee and Chen, 2009). Algal inoculum are withdrawn from the chemostat operated under a steady state, and transferred into 300 mL BOD bottles, together with dilution water (with growth medium) and toxicants. The BOD bottles are filled completely, leaving no headspace. A water seal is provided to ensure a closed test environment. The bottles are then placed on an orbital shaker operated at 100 rpm. Temperature and light intensity are kept at 24±1©° C. and 65 microEm−2 s−1 (±10%), respectively. US EPA bottle medium, with no EDTA content is used for toxicity testing. A sample of lyophilized quercetin (10%)/PVP (90%) is resuspended in solution. Two response endpoints are used to evaluate the toxicity of the resuspended quercetin; the final yield and algal growth rate based on cell density counts. […] The initial inoculated cell density is 15,000 cells/mL and the duration of the test is 48 h.

CDK4 = CDK4 (Homo sapiens, UniProt P11802); details: cited from earlier work
HCT-116 human cells = details: cited from earlier work
Daphnia magna [2] = details: cited from earlier work
Daphnia magna [3] = details: in vivo, 48 h
Description: Toxicity is determined using a Daphnia magna mobility assay as described (Kamaya et al., 2005). Neonates (<24 h old) from 2-3-week-old mothers are placed in a 50 ml glass beaker containing 40 ml of a test solution. All experiments for exposure and controls without chemicals are made in four replicates and performed at 21±0.3° C. under 16 h light: 8 h dark photoperiod. Immobility is used as the endpoint for determining acute toxicity; the daphnids showing no movement within 15 s after gentle stirring are defined to be immobile. After 24 and 48 h, the number of immobile daphnids is recorded to determine the concentration able to achieve 50% immobilization and it is indicated as EC50. The EC50 values are calculated by Probit analyses (USEPA, 1993), based on nominal concentrations and compared to similar experiments using benzoic acid and 2,4,6-THBA.

CDK6 = CDK6 (Homo sapiens, UniProt Q00534); details: cited from earlier work
Sequence of CDK6 (Q00534 whole entry): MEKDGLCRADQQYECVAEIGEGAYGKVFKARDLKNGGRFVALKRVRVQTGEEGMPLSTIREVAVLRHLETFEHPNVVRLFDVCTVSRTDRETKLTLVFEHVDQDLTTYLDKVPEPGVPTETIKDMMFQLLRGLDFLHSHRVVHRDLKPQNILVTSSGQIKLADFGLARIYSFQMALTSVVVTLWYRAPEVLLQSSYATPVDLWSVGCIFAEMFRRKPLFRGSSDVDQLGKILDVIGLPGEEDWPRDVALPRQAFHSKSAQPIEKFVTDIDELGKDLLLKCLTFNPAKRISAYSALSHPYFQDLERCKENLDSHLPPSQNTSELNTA
Sequence of CDK6 (P24385 whole entry partner): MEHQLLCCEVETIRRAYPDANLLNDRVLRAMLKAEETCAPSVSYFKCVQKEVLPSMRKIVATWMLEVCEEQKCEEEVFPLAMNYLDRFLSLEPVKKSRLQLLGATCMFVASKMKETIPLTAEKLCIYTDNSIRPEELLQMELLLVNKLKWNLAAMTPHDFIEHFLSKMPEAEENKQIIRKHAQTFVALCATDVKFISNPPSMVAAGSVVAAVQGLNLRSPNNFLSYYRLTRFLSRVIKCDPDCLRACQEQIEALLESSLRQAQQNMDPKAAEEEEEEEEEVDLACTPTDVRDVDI

[4] = test system: Pseudokirchneriella subcapitata; details: cited from earlier work
CDK2 = CDK2 (Homo sapiens, UniProt P24941); details: cited from earlier work
[5] = human
Excerpt: Potential human toxicity of 2,4,6-THBA can be related to its toxicity based on studies with Daphnia.

CDK1 = CDK1 (Homo sapiens, UniProt P06493); details: cited from earlier work
Sequence of CDK1 (P06493 whole entry, species assumed): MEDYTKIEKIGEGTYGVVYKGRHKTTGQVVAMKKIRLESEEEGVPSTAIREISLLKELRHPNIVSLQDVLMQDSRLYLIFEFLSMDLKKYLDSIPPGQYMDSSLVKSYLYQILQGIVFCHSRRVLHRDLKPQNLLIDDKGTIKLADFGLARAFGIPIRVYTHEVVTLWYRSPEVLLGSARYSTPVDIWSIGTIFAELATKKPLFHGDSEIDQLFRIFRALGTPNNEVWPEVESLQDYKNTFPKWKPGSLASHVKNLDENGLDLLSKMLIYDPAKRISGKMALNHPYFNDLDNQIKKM
Sequence of CDK1 (P14635 whole entry partner, species assumed): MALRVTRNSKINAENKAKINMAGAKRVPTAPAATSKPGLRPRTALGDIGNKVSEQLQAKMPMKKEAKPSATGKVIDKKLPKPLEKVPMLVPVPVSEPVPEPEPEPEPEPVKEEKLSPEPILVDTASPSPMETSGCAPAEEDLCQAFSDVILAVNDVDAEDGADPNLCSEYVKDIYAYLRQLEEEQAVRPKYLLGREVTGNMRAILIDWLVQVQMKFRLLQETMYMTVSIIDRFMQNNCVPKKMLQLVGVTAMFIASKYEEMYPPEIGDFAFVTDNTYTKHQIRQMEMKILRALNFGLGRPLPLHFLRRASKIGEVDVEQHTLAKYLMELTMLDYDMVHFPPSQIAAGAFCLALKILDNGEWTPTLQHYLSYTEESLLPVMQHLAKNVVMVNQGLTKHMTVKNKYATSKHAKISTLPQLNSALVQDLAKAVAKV

[6] = human oral exposure; cited from earlier work
[7] = humans, cited from earlier work

Sequence of CDK4 (P11802 whole entry): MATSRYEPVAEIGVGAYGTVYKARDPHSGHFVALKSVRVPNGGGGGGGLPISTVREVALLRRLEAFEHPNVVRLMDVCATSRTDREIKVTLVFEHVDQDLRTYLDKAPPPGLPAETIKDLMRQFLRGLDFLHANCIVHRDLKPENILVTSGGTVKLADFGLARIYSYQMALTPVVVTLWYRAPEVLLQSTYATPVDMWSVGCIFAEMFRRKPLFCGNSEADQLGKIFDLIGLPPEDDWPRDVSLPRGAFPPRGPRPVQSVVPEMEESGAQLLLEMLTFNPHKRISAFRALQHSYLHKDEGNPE
Sequence of CDK4 (P24385 whole entry partner): as the sequence (P24385 whole entry partner) above

| SMILES | toxicity relative to benzoic acid and its other derivatives [1] [times] | inhibitory effect on CDK4 (CDK4) | cytotoxicity compared to other salicylic acid metabolites (HCT-116 human cells) | EC50 at 48 h, mobility assay (Daphnia magna [2]) [mg/L] | LC50 in 48 h, immobilization test (Daphnia magna [2]) [mg/L] | toxicity relative to benzoic acid (Daphnia magna [3]) | inhibitory effect on CDK6 (CDK6) | EC50, suppression of growth [4] [mg/L] | inhibitory effect on CDK2 (CDK2) | RfD estimated from Daphnia EC50 [5] [mg/kg/day] | RfD-based toxicity relative to benzoic acid [5] | RfD-based toxicity relative to quercetin [5] [times] | inhibitory effect on CDK1 (CDK1) | RfD / toxicity in humans [6] | elimination half-life ([7]; after ingestion in foods or supplements) [h] | bioavailability of quercetin [7] |
| --- | --- | --- | --- | --- | --- | --- | --- | --- | --- | --- | --- | --- | --- | --- | --- | --- |
| O=C(O)c1c(O)cc(O)cc1O [2,4,6-THBA, 2,4,6-trihydroxybenzoic acid] | 70 | strong inhibitory effect | more cytotoxic | 1.7 (≈ 9.99 µM) | 1.7 (≈ 9.99 µM) | about 500 times | strong inhibitory effect | 0.546 | strong inhibitory effect | 0.02 | more than 50 times | 700 | strong inhibitory effect | – | – | – |
| O=C(O)c1ccccc1 [benzoic acid] | – | – | – | 860 (≈ 7040 µM) | – | – | – | 36 | – | – | – | – | – | 1 mg/kg/day | – | – |
| O=c1c(O)c(-c2ccc(O)c(O)c2)oc2cc(O)cc(O)c12 [quercetin, 2-(3,4-dihydroxyphenyl)-3,5,7-trihydroxy-4H-chromen-4-one] | – | – | – | – | – | – | – | – | – | – | – | – | – | more than 15 mg/kg/day | 1 to 2 | 0-50% |
